The assay deals with Metabotropic glutamate receptor 5 (Rattus norvegicus, UniProt P31424). The assay can be described thus: Concentration for half maximal activation of metabotropic glutamate mGluR5a in rat.
Sequence of Metabotropic glutamate receptor 5 (P31424 whole entry): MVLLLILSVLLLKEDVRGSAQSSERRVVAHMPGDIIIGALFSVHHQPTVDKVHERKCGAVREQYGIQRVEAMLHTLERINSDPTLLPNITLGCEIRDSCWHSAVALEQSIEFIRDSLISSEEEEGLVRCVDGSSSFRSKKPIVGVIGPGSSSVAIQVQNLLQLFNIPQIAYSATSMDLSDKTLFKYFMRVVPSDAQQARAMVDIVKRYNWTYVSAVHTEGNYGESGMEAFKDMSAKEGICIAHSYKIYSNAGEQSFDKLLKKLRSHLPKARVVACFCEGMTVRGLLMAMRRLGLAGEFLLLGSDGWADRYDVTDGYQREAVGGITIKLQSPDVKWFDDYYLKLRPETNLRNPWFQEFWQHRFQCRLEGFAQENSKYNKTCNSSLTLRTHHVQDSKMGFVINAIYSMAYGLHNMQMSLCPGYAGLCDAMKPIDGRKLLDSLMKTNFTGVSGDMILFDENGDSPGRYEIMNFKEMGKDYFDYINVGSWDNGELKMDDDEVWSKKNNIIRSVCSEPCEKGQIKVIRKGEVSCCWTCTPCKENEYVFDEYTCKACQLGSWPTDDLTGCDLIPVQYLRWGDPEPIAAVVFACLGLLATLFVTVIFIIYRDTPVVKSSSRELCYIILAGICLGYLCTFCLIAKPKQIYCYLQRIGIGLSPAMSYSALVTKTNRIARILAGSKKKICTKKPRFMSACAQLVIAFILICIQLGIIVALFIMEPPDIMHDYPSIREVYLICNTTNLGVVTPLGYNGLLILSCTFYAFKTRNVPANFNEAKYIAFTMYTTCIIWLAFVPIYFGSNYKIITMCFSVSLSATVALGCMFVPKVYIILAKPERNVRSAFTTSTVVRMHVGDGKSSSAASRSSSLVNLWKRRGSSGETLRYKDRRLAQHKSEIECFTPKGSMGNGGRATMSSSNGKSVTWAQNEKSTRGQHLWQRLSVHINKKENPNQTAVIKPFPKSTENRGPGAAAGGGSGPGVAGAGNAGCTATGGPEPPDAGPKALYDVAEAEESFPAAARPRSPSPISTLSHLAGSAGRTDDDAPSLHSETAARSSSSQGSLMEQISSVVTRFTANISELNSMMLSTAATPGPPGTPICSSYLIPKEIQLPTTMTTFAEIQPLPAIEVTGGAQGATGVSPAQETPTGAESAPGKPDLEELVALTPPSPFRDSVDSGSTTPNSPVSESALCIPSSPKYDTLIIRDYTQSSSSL
`N[C@@]1(C(=O)O)CC[C@@H](C(=O)O)C1` [SMR001230688]: the “EC50” value was found to be 50 µM.
`N[C@H](C(=O)O)c1cc(=O)[nH]o1` [(S)-Amino-(3-oxo-2,3-dihydro-isoxazol-5-yl)-acetic acid]: the “EC50” value stood at 10 µM.
With `N[C@@H](CCC(=O)O)C(=O)O` [L-Glutamic acid] the figure was 10 µM; with `N[C@@H](Cn1oc(=O)[nH]c1=O)C(=O)O` [2-amino-3-(3,5-dioxo[1,2,4]oxadiazolidin-2-yl)propionic acid], 0.3 µM.

Usually EC50 stands for the concentration needed to bring the measured effect to its halfway point. Lower therefore signals greater potency.
